Data: US9458153B2, “Dihydroquinolizinones for the treatment and prophylaxis of hepatitis B virus infection” (Hoffmann-La Roche Inc., priority 2014, dated 2016)
Counter-ions that a name gives are not always drawn.

These compounds were tested on HBsAg (assay: HBsAg assay (chemiluminescence immunoassay of secreted HBsAg in HepG2.2.15 culture supernatant)). Settings: HBsAg secretion reduced by 50% vs no drug control; HepG2.2.15 cells; CLIA kit.
Type: cell-based, HBV
Procedure: HepG2.2.15 cells (Acs et al. Proc Natl Acad Sci USA, 84, (1987), 4641-4), a constitutively HBV-expressing cell line were cultured in DMEM+Glutamax-I medium (Invitrogen, Carlsbad, Calif., USA), supplemented with 10% fetal bovine serum (Invitrogen) and G418 (Invitrogen) at a final concentration of 200 mg/L and maintained in 5% CO2 at 37° C.
HepG2.2.15 cells were seeded in duplicate into white, 96-well plates at 1.5×10^4 cells/well. The cells were treated with a three-fold serial dilution series of the compounds in DMSO. The final DMSO concentration in all wells was 1% and DMSO was used as no drug control.
The HBsAg chemiluminescence immunoassay (CLIA) kit (Autobio Diagnostics Co., Zhengzhou, China, Catalog number: CL0310-2) was used to measure the levels of secreted HBV antigens semi-quantitatively. For the detection 50 μL/well culture supernatant was used and HBsAg was quantified using HBsAg chemiluminescence immunoassay (CLIA) kit (Autobio Diagnostics Co., Zhengzhou, China, Catalog number: CL0310-2), 50 μL of the supernatant was transferred to the CLIA assay plate and 50 μL of enzyme conjugate reagent was added into each well. The plates were sealed and gently agitated for 1 hour at room temperature. The supernatant-enzyme-mixture was discarded and wells were washed 6 times with 300 μL of PBS. The residual liquid was removed by plating the CLIA plate right side down on absorbent tissue paper. 25 μL of substrates A and B were added to each well. Luminance was measured using a luminometer (Mithras LB 940 Multimode Microplate Reader) after 10 minutes incubation. Dose-response curves were generated and the IC50 value was extrapolated by using the E-WorkBook Suite (ID Business Solutions Ltd., Guildford, UK).
The compounds of the present invention were tested for their capacity to inhibit HBsAg as described herein.

Compound	IC50
COc1cc2c(cc1OC)-c1cc(=O)c(C(=O)O)cn1C(C(C)C)C2 (single isomer, unassigned; (-)) [Example 100, (−)-6-isopropyl-9,10-dimethoxy-2-oxo-6,7-dihydrobenzo[a]quinolizine-3-carboxylic acid]	5.4 µM
COc1cc2c(cc1OC)-c1cc(=O)c(C(=O)O)cn1C(CC(C)C)C2 (single isomer, unassigned; (-)) [Example 103, (−)-6-isobutyl-9,10-dimethoxy-2-oxo-6,7-dihydrobenzo[a]quinolizine-3-carboxylic acid]	3.42 µM
COCCOc1cc2c(cc1Cl)-c1cc(=O)c(C(=O)O)cn1C(CC(C)C)C2 (single isomer, unassigned; (-)) [Example 106, (−)-10-chloro-6-isobutyl-9-(2-methoxyethoxy)-2-oxo-6,7-dihydrobenzo[a]quinolizine-3-carboxylic acid]	7.31 µM
COCCOc1cc2c(cc1Cl)-c1cc(=O)c(C(=O)O)cn1C(C(C)C)C2 (single isomer, unassigned; (-)) [Example 109, (−)-10-chloro-6-isopropyl-9-(2-methoxyethoxy)-2-oxo-6,7-dihydrobenzo[a]quinolizine-3-carboxylic acid]	0.061 µM
CCC1Cc2cc(OCc3ccccc3)c(C)cc2-c2cc(=O)c(C(=O)O)cn21 (single isomer, unassigned; (-)) [Example 117, (−)-9-benzyloxy-6-ethyl-10-methyl-2-oxo-6,7-dihydrobenzo[a]quinolizine-3-carboxylic acid]	0.91 µM
COCCCOc1cc2c(cc1Cl)-c1cc(=O)c(C(=O)O)cn1C(C(C)C)C2 (single isomer, unassigned; (-)) [Example 122, (−)-10-chloro-6-isopropyl-9-(3-methoxypropoxy)-2-oxo-6,7-dihydrobenzo[a]quinolizine-3-carboxylic acid]	0.69 µM
COc1cc2c(cc1OCC(F)(F)F)CC(C(C)C)n1cc(C(=O)O)c(=O)cc1-2 (single isomer, unassigned; (-)) [Example 128, (−)-6-isopropyl-10-methoxy-2-oxo-9-(2,2,2-trifluoroethoxy)-6,7-dihydrobenzo[a]quinolizine-3-carboxylic acid]	0.67 µM
COCCOc1cc2c(cc1OC)-c1cc(=O)c(C(=O)O)cn1C(C(C)C)C2 (single isomer, unassigned; (-)) [Example 130, (−)-6-isopropyl-10-methoxy-9-(2-methoxyethoxy)-2-oxo-6,7-dihydrobenzo[a]quinolizine-3-carboxylic acid]	1.54 µM
COCCCOc1cc2c(cc1OC)-c1cc(=O)c(C(=O)O)cn1C(C(C)(C)C)C2 (single isomer, unassigned; (-)) [Example 133, (−)-6-tert-butyl-10-methoxy-9-(3-methoxypropoxy)-2-oxo-6,7-dihydrobenzo[a]quinolizine-3-carboxylic acid]	0.33 µM
COCCOc1cc2c(cc1OC)-c1cc(=O)c(C(=O)O)cn1C(C1(C)CC1)C2 (single isomer, unassigned; (-)) [Example 136, (−)-10-methoxy-9-(2-methoxyethoxy)-6-(1-methylcyclopropyl)-2-oxo-6,7-dihydrobenzo[a]quinolizine-3-carboxylic acid]	0.4 µM
COCCCOc1cc2c(c(Cl)c1F)-c1cc(=O)c(C(=O)O)cn1C(C(C)C)C2 (single isomer, unassigned; (-)) [Example 139, (−)-11-chloro-10-fluoro-6-isopropyl-9-(3-methoxypropoxy)-2-oxo-6,7-dihydrobenzo[a]quinolizine-3-carboxylic acid]	0.129 µM
COc1cc2c(cc1OCC(F)F)CC(C(C)C)n1cc(C(=O)O)c(=O)cc1-2 (single isomer, unassigned; (-)) [Example 143, (−)-9-(2,2-difluoroethoxy)-6-isopropyl-10-methoxy-2-oxo-6,7-dihydrobenzo[a]quinolizine-3-carboxylic acid]	0.19 µM
COc1cc2c(cc1OCC(C)(C)CO)CC(C(C)C)n1cc(C(=O)O)c(=O)cc1-2 (single isomer, unassigned; (-)) [Example 146, (−)-9-(3-hydroxy-2,2-dimethyl-propoxy)-6-isopropyl-10-methoxy-2-oxo-6,7-dihydrobenzo[a]quinolizine-3-carboxylic acid]	0.52 µM
COc1cc2c(cc1OCC(C)(C)CO)CC(C(C)(C)C)n1cc(C(=O)O)c(=O)cc1-2 (single isomer, unassigned; (-)) [Example 151, (−)-6-tert-butyl-9-(3-hydroxy-2,2-dimethyl-propoxy)-10-methoxy-2-oxo-6,7-dihydrobenzo[a]quinolizine-3-carboxylic acid]	0.16 µM
COc1cc2c(cc1OCCCCCO)CC(C(C)(C)C)n1cc(C(=O)O)c(=O)cc1-2 (single isomer, unassigned; (-)) [Example 154, (−)-6-tert-butyl-9-(5-hydroxypentoxy)-10-methoxy-2-oxo-6,7-dihydrobenzo[a]quinolizine-3-carboxylic acid]	0.12 µM
COc1cc2c(cc1OCCCCCCO)CC(C(C)(C)C)n1cc(C(=O)O)c(=O)cc1-2 (single isomer, unassigned; (-)) [Example 157, (−)-6-tert-butyl-9-(6-hydroxyhexoxy)-10-methoxy-2-oxo-6,7-dihydrobenzo[a]quinolizine-3-carboxylic acid]	0.17 µM
COc1cc2c(cc1OCCCCCCNC(=O)OC(C)(C)C)CC(C(C)(C)C)n1cc(C(=O)O)c(=O)cc1-2 (single isomer, unassigned; (-)) [Example 163, (−)-9-[6-(tert-butoxycarbonylamino)hexoxy]-6-tert-butyl-10-methoxy-2-oxo-6,7-dihydrobenzo[a]quinolizine-3-carboxylic acid]	0.35 µM
COc1cc2c(cc1OCCCCCCCCNC(=O)OC(C)(C)C)CC(C(C)(C)C)n1cc(C(=O)O)c(=O)cc1-2 (single isomer, unassigned; (-)) [Example 169, (−)-9-[8-(tert-butoxycarbonylamino)octoxy]-6-tert-butyl-10-methoxy-2-oxo-6,7-dihydrobenzo[a]quinolizine-3-carboxylic acid]	0.19 µM
COc1cc2c(cc1OCCCSC)CC(C(C)(C)C)n1cc(C(=O)O)c(=O)cc1-2 (single isomer, unassigned; (-)) [Example 185, (−)-6-tert-butyl-10-methoxy-9-(3-methylsulfanylpropoxy)-2-oxo-6,7-dihydrobenzo[a]quinolizine-3-carboxylic acid]	0.055 µM
COc1cc2c(cc1OCCCS(C)(=O)=O)CC(C(C)(C)C)n1cc(C(=O)O)c(=O)cc1-2 (single isomer, unassigned; (-)) [Example 188, (−)-6-tert-butyl-10-methoxy-9-(3-methylsulfonylpropoxy)-2-oxo-6,7-dihydrobenzo[a]quinolizine-3-carboxylic acid]	0.22 µM
COc1cc2c(cc1OCCN1CCOCC1)CC(C(C)(C)C)n1cc(C(=O)O)c(=O)cc1-2 (single isomer, unassigned; (-)) [Example 191, (−)-6-tert-butyl-10-methoxy-9-(2-morpholinoethoxy)-2-oxo-6,7-dihydrobenzo[a]quinolizine-3-carboxylic acid]	0.19 µM
COc1cc2c(cc1OCCCN1CCOCC1)CC(C(C)(C)C)n1cc(C(=O)O)c(=O)cc1-2 (single isomer, unassigned; (-)) [Example 194, (−)-6-tert-butyl-10-methoxy-9-(3-morpholinopropoxy)-2-oxo-6,7-dihydrobenzo[a]quinolizine-3-carboxylic acid]	0.27 µM
COCCCOc1cc2c(cc1OC)-c1cc(=O)c(C(=O)O)cn1C(CC(F)(F)F)C2 (single isomer, unassigned; (-)) [Example 201, (−)-10-methoxy-9-(3-methoxypropoxy)-2-oxo-6-(2,2,2-trifluoroethyl)-6,7-dihydrobenzo[a]quinolizine-3-carboxylic acid]	14.2 µM

Same assay, conditions: HBsAg secretion reduced by 50% vs no drug control; HepG2.2.15 cells; CLIA kit; hydrochloride

Compound	IC50
COc1cc2c(cc1OCCCCCCN)CC(C(C)(C)C)n1cc(C(=O)O)c(=O)cc1-2 (single isomer, unassigned; (-)) [Example 165, (−)-9-(6-aminohexoxy)-6-tert-butyl-10-methoxy-2-oxo-6,7-dihydrobenzo[a]quinolizine-3-carboxylic acid hydrochloride]	1.55 µM
COc1cc2c(cc1OCCCCCCCCN)CC(C(C)(C)C)n1cc(C(=O)O)c(=O)cc1-2 (single isomer, unassigned; (-)) [Example 171, (−)-9-(8-aminooctoxy)-6-tert-butyl-10-methoxy-2-oxo-6,7-dihydrobenzo[a]quinolizine-3-carboxylic acid hydrochloride]	0.42 µM
COc1cc2c(cc1OCCCCCN)CC(C(C)(C)C)n1cc(C(=O)O)c(=O)cc1-2 (single isomer, unassigned; (-)) [Example 174, (−)-9-(5-aminopentoxy)-6-tert-butyl-10-methoxy-2-oxo-6,7-dihydrobenzo[a]quinolizine-3-carboxylic acid hydrochloride]	2.42 µM
